# Assays:
# [1] = biological target: Signal peptidase I (Escherichia coli K-12) (UniProt P00803); assay: Inhibition of LepB in Escherichia coli IMP assessed as antibacterial activity by measuring reduction in bacterial growth incubated for 18 hrs by two-fold serial dilution method
# [2] = Unbound fraction in human plasma at 5 uM measured after 24 hrs by LC-MS/MS analysis; type: ADME, cell-free
# [3] = tested on: Escherichia coli; assay: Antibacterial activity against Escherichia coli 25922 incubated for 18 hrs by two-fold serial dilution method; type: functional
# [4] = tested on: Escherichia coli; assay: Antibacterial activity against Escherichia coli 25922 incubated for 18 hrs in presence of 50% mouse serum by two-fold serial dilution method; type: functional
# Sequence of Signal peptidase I (Escherichia coli K-12) (P00803 whole entry): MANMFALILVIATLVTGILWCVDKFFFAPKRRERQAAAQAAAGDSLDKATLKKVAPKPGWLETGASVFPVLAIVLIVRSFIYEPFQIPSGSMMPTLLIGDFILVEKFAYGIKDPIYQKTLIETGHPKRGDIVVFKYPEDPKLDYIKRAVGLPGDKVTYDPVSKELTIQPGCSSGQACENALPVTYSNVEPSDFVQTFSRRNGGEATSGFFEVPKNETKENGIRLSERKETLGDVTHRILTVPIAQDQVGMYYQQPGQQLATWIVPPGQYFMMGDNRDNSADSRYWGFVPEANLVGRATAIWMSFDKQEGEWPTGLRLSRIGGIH
Structure (SMILES),MIC [1],"fraction unbound at 24 h, 5 µM [2]",MIC [3],MIC [4]
C[C@@H]1NC(=O)[C@@H](N(C)C(=O)[C@H](CCN)NC(=O)c2ccc(-c3ccc(C(C)(C)C)cc3)nc2N)c2ccc(OCCN)c(c2)-c2cc(ccc2OCCN)C[C@@H](C(=O)NCC#N)NC1=O,0.011 µg/mL,0.063,0.45 µg/mL,0.89 µg/mL
C[C@@H]1NC(=O)[C@@H](N(C)C(=O)[C@H](CCN)NC(=O)c2cnc(-c3ccc(C(C)(C)C)cc3)cc2N)c2ccc(OCCN)c(c2)-c2cc(ccc2OCCN)C[C@@H](C(=O)NCC#N)NC1=O,0.011 µg/mL,,0.22 µg/mL,0.34 µg/mL
Cc1nc(-c2ccc(C(C)(C)C)cc2)nc(C)c1C(=O)N[C@@H](CCN)C(=O)N(C)[C@@H]1C(=O)N[C@@H](C)C(=O)N[C@H](C(=O)NCC#N)Cc2ccc(OCCN)c(c2)-c2cc1ccc2OCCN,0.003 µg/mL,0.22,0.13 µg/mL,0.17 µg/mL
Cc1nc(-c2ccc(C(C)(C)C)cc2)cc(N)c1C(=O)N[C@@H](CCN)C(=O)N(C)[C@@H]1C(=O)N[C@@H](C)C(=O)N[C@H](C(=O)NCC#N)Cc2ccc(OCCN)c(c2)-c2cc1ccc2OCCN,0.007 µg/mL,,0.12 µg/mL,0.08 µg/mL
Cc1cc(-c2ccc(C(C)(C)C)cc2)cc(C)c1C(=O)N[C@@H](CCN)C(=O)N(C)[C@@H]1C(=O)N[C@@H](C)C(=O)N[C@H](C(=O)NCC#N)Cc2ccc(OCCN)c(c2)-c2cc1ccc2OCCN,0.005 µg/mL,,0.17 µg/mL,0.34 µg/mL
Cc1nc(-c2ccc(C(C)(C)C)cc2)nc(N)c1C(=O)N[C@@H](CCN)C(=O)N(C)[C@@H]1C(=O)N[C@@H](C)C(=O)N[C@H](C(=O)NCC#N)Cc2ccc(OCCN)c(c2)-c2cc1ccc2OCCN,0.005 µg/mL,0.12,0.11 µg/mL,0.11 µg/mL
Cc1nc(-c2ccc(C(C)(C)C)cc2)ccc1C(=O)N[C@@H](CCN)C(=O)N(C)[C@@H]1C(=O)N[C@@H](C)C(=O)N[C@H](C(=O)NCC#N)Cc2ccc(OCCN)c(c2)-c2cc1ccc2OCCN,0.004 µg/mL,,0.12 µg/mL,0.12 µg/mL
Cc1cc(-c2ccc(C(C)(C)C)cc2)ncc1C(=O)N[C@@H](CCN)C(=O)N(C)[C@@H]1C(=O)N[C@@H](C)C(=O)N[C@H](C(=O)NCC#N)Cc2ccc(OCCN)c(c2)-c2cc1ccc2OCCN,0.004 µg/mL,0.11,0.12 µg/mL,0.24 µg/mL
Cc1cc(-c2ccc(C(C)(C)C)cc2)nc(C)c1C(=O)N[C@@H](CCN)C(=O)N(C)[C@@H]1C(=O)N[C@@H](C)C(=O)N[C@H](C(=O)NCC#N)Cc2ccc(OCCN)c(c2)-c2cc1ccc2OCCN,0.004 µg/mL,0.083,0.18 µg/mL,0.12 µg/mL
Cc1cc(-c2ccc(C(C)(C)C)cc2)nc(N)c1C(=O)N[C@@H](CCN)C(=O)N(C)[C@@H]1C(=O)N[C@@H](C)C(=O)N[C@H](C(=O)NCC#N)Cc2ccc(OCCN)c(c2)-c2cc1ccc2OCCN,0.007 µg/mL,0.058,0.23 µg/mL,0.45 µg/mL
Cc1nc(-c2ccc(C(C)(C)C)cc2)ncc1C(=O)N[C@@H](CCN)C(=O)N(C)[C@@H]1C(=O)N[C@@H](C)C(=O)N[C@H](C(=O)NCC#N)Cc2ccc(OCCN)c(c2)-c2cc1ccc2OCCN,0.004 µg/mL,0.23,0.14 µg/mL,0.2 µg/mL
Cc1cc(-c2ccc(-c3ccccc3)cc2)ccc1C(=O)N[C@@H](CCN)C(=O)N(C)[C@@H]1C(=O)N[C@@H](C)C(=O)N[C@H](C(=O)NCC#N)Cc2ccc(OCCN)c(c2)-c2cc1ccc2OCCN,0.043 µg/mL,0.017,0.22 µg/mL,1.5 µg/mL
CNc1nc(-c2ccc(C(C)(C)C)cc2)ncc1C(=O)N[C@@H](CCN)C(=O)N(C)[C@@H]1C(=O)N[C@@H](C)C(=O)N[C@H](C(=O)NCC#N)Cc2ccc(OCCN)c(c2)-c2cc1ccc2OCCN,0.007 µg/mL,,0.34 µg/mL,0.68 µg/mL
CC(C)CCc1ccc(-c2ccc(C(=O)N[C@@H](CCN)C(=O)N(C)[C@@H]3C(=O)N[C@@H](C)C(=O)N[C@H](C(=O)NCC#N)Cc4ccc(OCCN)c(c4)-c4cc3ccc4OCCN)cc2)cc1,0.015 µg/mL,,0.18 µg/mL,3.8 µg/mL
Cc1cc(-c2ccc(C(C)(C)C)cc2)ccc1C(=O)N[C@@H](CCN)C(=O)N(C)[C@@H]1C(=O)N[C@@H](C)C(=O)N[C@H](C(=O)NCC#N)Cc2ccc(OCCN)c(c2)-c2cc1ccc2OCCN,0.011 µg/mL,0.001,0.12 µg/mL,0.44 µg/mL
Cc1nc(-c2ccc(C(C)(C)C)cc2)c(N)cc1C(=O)N[C@@H](CCN)C(=O)N(C)[C@@H]1C(=O)N[C@@H](C)C(=O)N[C@H](C(=O)NCC#N)Cc2ccc(OCCN)c(c2)-c2cc1ccc2OCCN,0.021 µg/mL,,0.34 µg/mL,0.12 µg/mL
Cc1cc(-c2ccc(C(F)(F)F)cc2)ccc1C(=O)N[C@@H](CCN)C(=O)N(C)[C@@H]1C(=O)N[C@@H](C)C(=O)N[C@H](C(=O)NCC#N)Cc2ccc(OCCN)c(c2)-c2cc1ccc2OCCN,0.014 µg/mL,0.078,0.41 µg/mL,1.4 µg/mL

# Other lines, results leading:
MIC [1],"fraction unbound at 24 h, 5 µM [2]",MIC [3],MIC [4],Structure (SMILES)
0.01 µg/mL,0.13,0.83 µg/mL,2.3 µg/mL,Cc1cc(-c2ccc(Cl)cc2)ccc1C(=O)N[C@@H](CCN)C(=O)N(C)[C@@H]1C(=O)N[C@@H](C)C(=O)N[C@H](C(=O)NCC#N)Cc2ccc(OCCN)c(c2)-c2cc1ccc2OCCN
0.016 µg/mL,,0.2 µg/mL,2.1 µg/mL,CCCCc1ccc(-c2ccc(C(=O)N[C@@H](CCN)C(=O)N(C)[C@@H]3C(=O)N[C@@H](C)C(=O)N[C@H](C(=O)NCC#N)Cc4ccc(OCCN)c(c4)-c4cc3ccc4OCCN)cc2)cc1
0.35 µg/mL,0.59,31 µg/mL,60 µg/mL,CCCCCCCC(=O)N[C@@H](CCN)C(=O)N(C)[C@@H]1C(=O)N[C@@H](C)C(=O)N[C@H](C(=O)NCC#N)Cc2ccc(OCCN)c(c2)-c2cc1ccc2OCCN
0.006 µg/mL,0.001,0.08 µg/mL,0.83 µg/mL,Cc1cc(-c2ccc(CC(C)C)cc2)ccc1C(=O)N[C@@H](CCN)C(=O)N(C)[C@@H]1C(=O)N[C@@H](C)C(=O)N[C@H](C(=O)NCC#N)Cc2ccc(OCCN)c(c2)-c2cc1ccc2OCCN
0.007 µg/mL,0.086,0.15 µg/mL,0.96 µg/mL,Cc1cc(-c2ccc(C(C)C)cc2)ccc1C(=O)N[C@@H](CCN)C(=O)N(C)[C@@H]1C(=O)N[C@@H](C)C(=O)N[C@H](C(=O)NCC#N)Cc2ccc(OCCN)c(c2)-c2cc1ccc2OCCN
0.023 µg/mL,0.09,3.8 µg/mL,15 µg/mL,CCCCCCCCCCC(=O)N[C@@H](CCN)C(=O)N(C)[C@@H]1C(=O)N[C@@H](C)C(=O)N[C@H](C(=O)NCC#N)Cc2ccc(OCCN)c(c2)-c2cc1ccc2OCCN
0.007 µg/mL,0.01,0.23 µg/mL,3.8 µg/mL,CCCCCCCCCCCCC(=O)N[C@@H](CCN)C(=O)N(C)[C@@H]1C(=O)N[C@@H](C)C(=O)N[C@H](C(=O)NCC#N)Cc2ccc(OCCN)c(c2)-c2cc1ccc2OCCN
0.1 µg/mL,,15 µg/mL,51 µg/mL,CCCCCCCCCC(=O)N[C@@H](CCN)C(=O)N(C)[C@@H]1C(=O)N[C@@H](C)C(=O)N[C@H](C(=O)NCC#N)Cc2ccc(OCCN)c(c2)-c2cc1ccc2OCCN
0.023 µg/mL,0.34,3 µg/mL,2 µg/mL,Cc1cc(-c2ccccc2)ccc1C(=O)N[C@@H](CCN)C(=O)N(C)[C@@H]1C(=O)N[C@@H](C)C(=O)N[C@H](C(=O)NCC#N)Cc2ccc(OCCN)c(c2)-c2cc1ccc2OCCN
0.007 µg/mL,0.03,0.98 µg/mL,7.5 µg/mL,CCCCCCCCCCCC(=O)N[C@@H](CCN)C(=O)N(C)[C@@H]1C(=O)N[C@@H](C)C(=O)N[C@H](C(=O)NCC#N)Cc2ccc(OCCN)c(c2)-c2cc1ccc2OCCN
0.022 µg/mL,0.2,1.5 µg/mL,3.8 µg/mL,C[C@@H]1NC(=O)[C@@H](N(C)C(=O)[C@H](CCN)NC(=O)c2ccc(-c3ccc(Cl)cc3)cc2)c2ccc(OCCN)c(c2)-c2cc(ccc2OCCN)C[C@@H](C(=O)NCC#N)NC1=O
0.008 µg/mL,0.053,0.31 µg/mL,0.75 µg/mL,CCc1ccc(-c2ccc(C(=O)N[C@@H](CCN)C(=O)N(C)[C@@H]3C(=O)N[C@@H](C)C(=O)N[C@H](C(=O)NCC#N)Cc4ccc(OCCN)c(c4)-c4cc3ccc4OCCN)c(C)c2)cc1
0.014 µg/mL,,0.24 µg/mL,3.8 µg/mL,CCCCCCCCCCCCCC(=O)N[C@@H](CCN)C(=O)N(C)[C@@H]1C(=O)N[C@@H](C)C(=O)N[C@H](C(=O)NCC#N)Cc2ccc(OCCN)c(c2)-c2cc1ccc2OCCN
0.12 µg/mL,,23 µg/mL,61 µg/mL,CCCCCCCCC(=O)N[C@@H](CCN)C(=O)N(C)[C@@H]1C(=O)N[C@@H](C)C(=O)N[C@H](C(=O)NCC#N)Cc2ccc(OCCN)c(c2)-c2cc1ccc2OCCN

# — ChEMBL document CHEMBL5370681, “Lipid Tales: Optimizing Arylomycin Membrane Anchors” (ACS Med Chem Lett, 2023)
